Publication PMC7139656, “The Landscape of the Anti-Kinase Activity of the IDH1 Inhibitors” (Cancers, 2020)

Tests used:
[1] = test system: mutant IDH1 (2-HG production) in K562 cells; test: Mutant IDH1 activity - D-2-hydroxyglutarate production in K562 cells; format: cell-based, human; settings: 24-h incubation; for D-2-HG level after treatment (decrease to): 30 μM
Protocol: The K562 and U-251 cells were seeded in 3-cm Petri dishes (Nunc) at a density of 0.5 × 10^6 cells/well and incubated at 37 °C for 24 h. […] After a 24-h treatment, the assays were performed using a D-2-Hydroxyglutarate Assay Kit (Abcam) according to the manufacturer’s instructions. Briefly, 25 μL of each cell lysate was transferred onto 96-well plates. Internal and external standards (containing 1 mM D2HG) were also prepared. Then, a freshly prepared reaction mix containing D2HG Assay Buffer, D2HG Enzyme and D2HG Substrate Mix was added to each well. Reaction mixes with the cell lysates were incubated for 60 min at 37 °C in the dark. The optical densities of the samples were analyzed at 450 nm using a Synergy 4 multi-plate reader. The experiments were performed at least four times. The D-2-Hydroxyglutarate concentration is expressed as nM/μL.

ABL1 native = target: T1, ABL1 native (Homo sapiens, UniProt P00519); test: Tyrosine kinase inhibition in vitro (Kinase Selectivity TK-2 Profiling System, ADP-Glo); format: biochemical; settings: for inhibition at 0.5 µM: compound at 0.5 μM, read-out: Inhibitory Effect of the Non-Receptor Tyrosine Kinase Activity, ABL1 native
T1 construct: purchased Promega
Protocol: (§1) The inhibition of the tyrosine kinases by the tested compounds was measured using the Kinase Selectivity TK-2 Profiling Systems (Promega) as was previously reported. Briefly, the kinases (ABL1; BRK; BTK; CSK; Fyn A; Lck; Lyn B; Src) and substrate/co factor strips were prepared according to the manufacturer’s instructions. The compounds being tested were dissolved in DMSO to a concentration of 100 μM, which was then used as the stock solution to prepare the 0.5 μM final concentration in a 1x Kinase Reaction Buffer (40 mM Tris – pH 7.5; 20 mM MgCl2; 0.1 mg/mL BSA; 50 μM DTT). The experiment began with transferring 1 μl of the prepared solutions of the tested compounds onto a 384-well white plate that was designed for luminescence (Corning). Then, 2 μL of the kinases from the eight-well strip were added into each well and the plate was incubated for 10 min at room temperature (RT), after which 2 μL of the substrates from the eight-well substrate/co-factor strip were added to each well and the plate was left at RT for 1 h. Solutions of 1x Kinase Reaction Buffer with 5% vehicle (DMSO) were used as the negative controls without an inhibitor or enzymes. The activity of each kinase was determined using an ADP-Glo Kinase Assay (Promega). Firstly, in order to stop the reaction, 5 μL of ADP-Glo reagent was added to each well and the plate was incubated for 40 min at RT. Afterwards, 10 μL of the Kinase Detection Reagent was added to each well and the luminescence was measured in a Synergy 4 multi-plate reader following a 30-min incubation at RT. […] The data are expressed as the percentage of the inhibition of tyrosine kinase after treatment with the tested compounds.

ABL1 T315I = target: T2, ABL1 T315I (Homo sapiens, UniProt P00519, T315I); test: ABL (T315I) Kinase Assay (ADP-Glo); format: biochemical; settings: for inhibition at 0.5 µM: compound at 0.5 μM, read-out: Inhibitory Effect of the Non-Receptor Tyrosine Kinase Activity, ABL1 T315I
T2 construct: purchased Promega
Protocol: as §1
Briefly, the solutions of the compounds being tested at various concentrations were prepared in a 1x Kinase Reaction Buffer. Firstly, 1 μl of the solutions of the tested compounds or vehicle – 5% DMSO (as the control without an inhibitor) were added onto a 384-well low volume white plate. […] After 10 min of incubation at RT, 2 μL of the substrate/ATP mixture was added to each well and incubated for 1h at RT. The luminescence of the kinase activity after treatment with the tested compounds was measured using an ADP-Glo Kinase Assay as was described above. The experiments were performed three times and the results are presented as the IC50 values, which were calculated using GraphPad Prism 7.

BRK = target: T3, BRK (Homo sapiens, UniProt Q13882); test: Tyrosine kinase inhibition in vitro (TK-2 panel, ADP-Glo); format: biochemical; settings: compound at 0.5 μM; read-out: Inhibitory Effect of the Non-Receptor Tyrosine Kinase Activity, BRK
T3 construct: purchased Promega
Protocol: as §1

BTK = target: T4, BTK (Homo sapiens, UniProt Q06187); test: as above; format: biochemical; settings: for inhibition at 0.5 µM: compound at 0.5 μM, read-out: Inhibitory Effect of the Non-Receptor Tyrosine Kinase Activity, BTK
T4 construct: purchased Promega
Protocol: as §1

CSK = target: T5, CSK (Homo sapiens, UniProt P41240); test: as above; format: biochemical; settings: compound at 0.5 μM; read-out: Inhibitory Effect of the Non-Receptor Tyrosine Kinase Activity, CSK
T5 construct: purchased Promega
Protocol: as §1

Fyn A = target: T6, Fyn A (Homo sapiens, UniProt P06241); test: as above; format: biochemical; settings: for inhibition at 0.5 µM: compound at 0.5 μM, read-out: Inhibitory Effect of the Non-Receptor Tyrosine Kinase Activity, Fyn A
T6 construct: purchased Promega
Protocol: as §1

Lck = target: T7, Lck (Homo sapiens, UniProt P06239); test: as above; format: biochemical; settings: compound at 0.5 μM; read-out: Inhibitory Effect of the Non-Receptor Tyrosine Kinase Activity, Lck
T7 construct: purchased Promega
Protocol: as §1

Src = target: T8, Src (Homo sapiens, UniProt P12931); test: as above; format: biochemical; settings: compound at 0.5 μM; read-out: Inhibitory Effect of the Non-Receptor Tyrosine Kinase Activity, Src
T8 construct: purchased Promega
Protocol: as §1

Lyn B = target: T9, Lyn B (Homo sapiens, UniProt P07948); test: as above; format: biochemical; settings: for inhibition at 0.5 µM: compound at 0.5 μM, read-out: Inhibitory Effect of the Non-Receptor Tyrosine Kinase Activity, Lyn B
T9 construct: purchased Promega

HCT 116 p53+/+ = test: Cytotoxicity / antiproliferative activity, MTS test; format: cell-based; settings: Homo sapiens, 72-h incubation
Protocol: (§2) M. Rusin from the Maria Sklodowska-Curie Memorial Cancer Centre and Institute of Oncology in Gliwice, Poland. […] G. Kramer-Marek from The Institute of Cancer Research in London, United Kingdom. The pancreatic cell line PANC-1 and the human chronic myelogenous leukemia cell line K562 were purchased from Sigma-Aldrich. […] All of these cell lines were grown under standard conditions at 37 °C in a 5% CO2 humidified atmosphere. Prior to beginning the experiments, all of the cell lines were subjected to routine mycoplasma testing with specific Mycoplasma primers using the PCR technique.
(§3) The exponentially growing cells for all of the cell lines were seeded in 96-well plates (Nunc) at a density of 5000 cells/well and incubated at 37 °C for 24 h. The assay was performed following a 72-h incubation with the various concentrations of the compounds that were being tested. Then, 20 µL of CellTiter 96®AQueous One Solution-MTS (Promega) solution was added to each well (with 100 µL DMEM without phenol red) and incubated for 1 h at 37 °C. The optical densities of the samples were analyzed at 490 nm using a multi-plate reader (Synergy 4, BioTek). The results are expressed as the percentage of the control and were calculated as the inhibitory concentration (IC50) values using GraphPad Prism 7. Each individual compound was tested in triplicate in a single experiment with each experiment being repeated five times.

HCT 116 p53-/- = test: as above; format: cell-based; settings: Homo sapiens, 72-h incubation
Protocol: as §2, §3

K562 = test: as above; format: cell-based; settings: Homo sapiens, 72-h incubation
Protocol: as §2, §3

MCF-7 = test: as above; format: cell-based; settings: Homo sapiens, MCF7, 72-h incubation
Protocol: as §2, §3

PANC-1 = test: as above; format: cell-based; settings: Homo sapiens, 72-h incubation
Protocol: as §2, §3

U-251 = test: as above; format: cell-based; settings: Homo sapiens, 72-h incubation
Protocol: as §2, §3

ABL1 enzyme = ABL1 enzyme (Homo sapiens, UniProt P00519); test: Pharmacological synergy on the ABL enzyme model (TOS inhibitors and axitinib, ABL1 Kinase Assay, Chou-Talalay); settings: for Combination index [CI]: combination with axitinib, for Fa = 0.9, CI < 1 synergy, CompuSyn
Protocol: The experiments were performed at least three times. The synergy was calculated according to the Chou-Talay method (CompuSyn software) [33, 70]. Briefly, the concentration range was adjusted to cover the specified IC50 value against the ABL1 enzyme for each inhibitor.

ABL1 recombinant protein = test system: ABL1 recombinant protein; design: method as in PMID 19679652; settings: cited from earlier work
wild-type IDH1 = settings: cited from earlier work
IDH1 R132H = settings: cited from earlier work

T4 sequence (Q06187 whole entry): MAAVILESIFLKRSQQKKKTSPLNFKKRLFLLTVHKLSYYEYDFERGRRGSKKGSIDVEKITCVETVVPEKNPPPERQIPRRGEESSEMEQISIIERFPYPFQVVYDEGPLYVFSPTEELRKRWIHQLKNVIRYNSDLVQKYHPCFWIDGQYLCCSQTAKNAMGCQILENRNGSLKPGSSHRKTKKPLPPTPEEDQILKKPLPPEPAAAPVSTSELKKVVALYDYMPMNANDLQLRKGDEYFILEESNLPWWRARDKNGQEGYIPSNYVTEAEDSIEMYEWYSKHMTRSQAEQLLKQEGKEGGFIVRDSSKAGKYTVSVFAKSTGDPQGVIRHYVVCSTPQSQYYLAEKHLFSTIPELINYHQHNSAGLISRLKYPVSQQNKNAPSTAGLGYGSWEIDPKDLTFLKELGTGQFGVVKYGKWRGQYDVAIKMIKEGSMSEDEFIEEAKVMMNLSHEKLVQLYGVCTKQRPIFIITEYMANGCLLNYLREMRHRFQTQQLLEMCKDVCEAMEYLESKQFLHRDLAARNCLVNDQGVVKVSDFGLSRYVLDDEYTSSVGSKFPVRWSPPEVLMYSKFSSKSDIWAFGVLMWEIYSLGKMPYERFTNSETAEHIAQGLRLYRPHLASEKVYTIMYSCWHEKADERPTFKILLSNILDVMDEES
T6 sequence (P06241 whole entry): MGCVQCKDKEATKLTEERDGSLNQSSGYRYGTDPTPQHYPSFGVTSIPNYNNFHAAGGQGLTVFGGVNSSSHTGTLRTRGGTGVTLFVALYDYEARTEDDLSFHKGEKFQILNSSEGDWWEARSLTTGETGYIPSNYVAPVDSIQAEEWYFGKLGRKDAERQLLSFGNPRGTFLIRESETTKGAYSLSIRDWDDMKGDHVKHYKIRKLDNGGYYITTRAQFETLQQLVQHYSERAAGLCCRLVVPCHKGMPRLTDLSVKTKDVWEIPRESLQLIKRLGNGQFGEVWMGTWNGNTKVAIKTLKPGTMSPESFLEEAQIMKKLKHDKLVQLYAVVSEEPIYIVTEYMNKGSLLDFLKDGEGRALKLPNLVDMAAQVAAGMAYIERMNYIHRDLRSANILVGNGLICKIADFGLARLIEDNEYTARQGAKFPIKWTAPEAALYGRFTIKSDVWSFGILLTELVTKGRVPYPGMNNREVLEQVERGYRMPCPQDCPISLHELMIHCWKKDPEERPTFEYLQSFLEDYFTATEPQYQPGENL
T9 sequence (P07948 1-491 isoform P07948-2): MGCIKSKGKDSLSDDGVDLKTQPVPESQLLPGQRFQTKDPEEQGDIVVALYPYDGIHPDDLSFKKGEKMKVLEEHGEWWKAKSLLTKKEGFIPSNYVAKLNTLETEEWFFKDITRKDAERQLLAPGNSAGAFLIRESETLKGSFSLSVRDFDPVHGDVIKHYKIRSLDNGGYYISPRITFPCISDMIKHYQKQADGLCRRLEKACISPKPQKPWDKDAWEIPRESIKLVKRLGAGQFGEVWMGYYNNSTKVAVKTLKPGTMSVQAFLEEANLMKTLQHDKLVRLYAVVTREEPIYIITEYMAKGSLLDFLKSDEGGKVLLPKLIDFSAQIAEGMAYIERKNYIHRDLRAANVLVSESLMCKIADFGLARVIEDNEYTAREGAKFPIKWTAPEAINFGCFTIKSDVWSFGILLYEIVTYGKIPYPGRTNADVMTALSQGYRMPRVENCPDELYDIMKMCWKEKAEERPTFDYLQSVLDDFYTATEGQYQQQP
T3 sequence (Q13882 whole entry): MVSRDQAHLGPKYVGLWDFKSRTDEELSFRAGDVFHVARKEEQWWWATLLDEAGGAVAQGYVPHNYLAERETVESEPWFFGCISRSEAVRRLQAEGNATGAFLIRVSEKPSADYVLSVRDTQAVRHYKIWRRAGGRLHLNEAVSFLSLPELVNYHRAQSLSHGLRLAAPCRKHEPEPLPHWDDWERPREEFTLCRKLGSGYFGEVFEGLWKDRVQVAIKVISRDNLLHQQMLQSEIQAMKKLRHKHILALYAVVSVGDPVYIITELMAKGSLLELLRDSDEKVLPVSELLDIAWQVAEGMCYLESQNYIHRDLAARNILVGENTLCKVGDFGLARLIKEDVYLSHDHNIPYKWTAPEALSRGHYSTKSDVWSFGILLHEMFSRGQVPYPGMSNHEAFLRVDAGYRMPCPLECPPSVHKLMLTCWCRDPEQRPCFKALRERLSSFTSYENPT
T8 sequence (P12931 whole entry): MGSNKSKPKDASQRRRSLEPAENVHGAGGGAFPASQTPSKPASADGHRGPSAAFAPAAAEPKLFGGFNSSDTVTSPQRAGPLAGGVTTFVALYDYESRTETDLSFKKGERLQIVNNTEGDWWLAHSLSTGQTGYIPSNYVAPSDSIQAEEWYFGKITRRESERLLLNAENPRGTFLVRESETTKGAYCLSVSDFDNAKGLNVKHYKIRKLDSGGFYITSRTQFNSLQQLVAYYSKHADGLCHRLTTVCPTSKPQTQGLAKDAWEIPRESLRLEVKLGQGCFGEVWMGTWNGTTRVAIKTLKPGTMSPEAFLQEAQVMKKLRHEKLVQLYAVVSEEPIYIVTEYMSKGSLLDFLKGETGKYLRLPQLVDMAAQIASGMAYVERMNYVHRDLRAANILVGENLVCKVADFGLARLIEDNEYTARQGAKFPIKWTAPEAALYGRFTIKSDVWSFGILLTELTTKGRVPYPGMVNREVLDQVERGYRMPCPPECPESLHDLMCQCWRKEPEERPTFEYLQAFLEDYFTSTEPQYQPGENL
T7 sequence (P06239 whole entry): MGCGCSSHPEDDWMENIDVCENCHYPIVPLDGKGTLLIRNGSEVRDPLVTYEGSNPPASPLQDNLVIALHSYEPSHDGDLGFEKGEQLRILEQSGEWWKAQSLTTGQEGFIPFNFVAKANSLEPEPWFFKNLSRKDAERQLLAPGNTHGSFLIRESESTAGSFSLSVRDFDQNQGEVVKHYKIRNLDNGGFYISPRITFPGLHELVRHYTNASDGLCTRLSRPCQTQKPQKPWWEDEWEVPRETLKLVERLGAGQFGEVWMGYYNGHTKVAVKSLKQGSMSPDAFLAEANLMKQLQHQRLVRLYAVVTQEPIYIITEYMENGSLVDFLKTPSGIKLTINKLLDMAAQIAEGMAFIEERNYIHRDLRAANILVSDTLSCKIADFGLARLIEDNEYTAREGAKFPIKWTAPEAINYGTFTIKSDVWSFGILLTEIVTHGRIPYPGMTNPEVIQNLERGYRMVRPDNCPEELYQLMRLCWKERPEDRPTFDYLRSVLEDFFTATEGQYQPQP
T5 sequence (P41240 whole entry): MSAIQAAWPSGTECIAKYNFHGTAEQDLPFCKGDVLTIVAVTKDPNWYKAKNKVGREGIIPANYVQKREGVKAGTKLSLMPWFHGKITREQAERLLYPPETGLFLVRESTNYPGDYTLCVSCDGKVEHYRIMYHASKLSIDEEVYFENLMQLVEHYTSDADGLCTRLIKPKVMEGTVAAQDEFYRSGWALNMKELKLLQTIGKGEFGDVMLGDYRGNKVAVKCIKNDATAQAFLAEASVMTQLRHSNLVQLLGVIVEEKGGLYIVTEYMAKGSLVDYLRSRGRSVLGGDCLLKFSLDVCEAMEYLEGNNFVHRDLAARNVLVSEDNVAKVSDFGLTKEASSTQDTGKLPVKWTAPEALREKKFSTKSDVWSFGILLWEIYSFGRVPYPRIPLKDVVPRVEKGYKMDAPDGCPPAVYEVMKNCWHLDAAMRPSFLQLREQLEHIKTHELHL

| SMILES | IC50 (ABL1 native) | inhibition at 0.5 µM (ABL1 native) | IC50 (ABL1 T315I) | inhibition at 0.5 µM (ABL1 T315I) | inhibition at 0.5 µM (BRK) | IC50 (BTK) | inhibition at 0.5 µM (BTK) | inhibition at 0.5 µM (CSK) | inhibition at 0.5 µM (Fyn A) | inhibition at 0.5 µM (Lck) | inhibition at 0.5 µM (Src) | IC50 (Lyn B) | inhibition at 0.5 µM (Lyn B) | IC50 (HCT 116 p53+/+) | IC50 (HCT 116 p53-/-) | IC50 (K562) | IC50 (MCF-7) | IC50 (PANC-1) | IC50 (U-251) | D-2-HG level after treatment (decrease to) [1] | other results |
| --- | --- | --- | --- | --- | --- | --- | --- | --- | --- | --- | --- | --- | --- | --- | --- | --- | --- | --- | --- | --- | --- |
| CNC(=O)c1ccccc1Sc1ccc2c(/C=C/c3ccccn3)n[nH]c2c1 [Axitinib, axitinib, reference compound] | – | – | – | – | – | – | – | – | – | – | – | – | – | – | – | – | – | – | – | – | reduced level of 2-hydroxyglutarate ([1]; axitinib 0.5 μM): 46% |
| CCCCc1ccc(NS(=O)(=O)c2ccc(C)c(C(=O)N3CCN(c4ccccc4O)CC3)c2)cc1 [TOS-1, N-(4-butylphenyl)-3-[4-(2-hydroxyphenyl)piperazine-1-carbonyl]-4-methylbenzene-1-sulfonamide] | 934 nM | 42.8 ± 8.46% | 5.02 µM | 29.3 ± 7.43% | 22.6 ± 0.94% | 4940 nM | 32.3 ± 7.43% | 38.4 ± 6.15% | 29.9 ± 4.29% | 34.7 ± 2.51% | 0% | 5 µM | 0% | 24.7 ± 0.32 µM | 27.83 ± 0.17 µM | 12.7 ± 3.2 µM | 18.1 ± 1 µM | 25.2 ± 3.38 µM | 27.59 ± 0.17 µM | 24% | IC50 (Fyn A): 4.15 µM; Fa (fraction affected), combination with axitinib (ABL1 enzyme; TOS-1 0.375 µM + axitinib 0.125 µM): 0.3787; Fa (fraction affected), combination with axitinib (ABL1 enzyme; TOS-1 0.625 µM + axitinib 0.25 µM): 0.4837; Fa (fraction affected), combination with axitinib (ABL1 enzyme; TOS-1 1.25 µM + axitinib 0.5 µM): 0.7204; Fa (fraction affected), combination with axitinib (ABL1 enzyme; TOS-1 2.5 µM + axitinib 1 µM): 0.8412; Combination index [CI] (ABL1 enzyme): 0.5; Fa (fraction affected), single agent (ABL1 enzyme; dose 0.375 µM): 0.1126; Fa (fraction affected), single agent (ABL1 enzyme; dose 0.625 µM): 0.4149; Fa (fraction affected), single agent (ABL1 enzyme; dose 1.25 µM): 0.559; Fa (fraction affected), single agent (ABL1 enzyme; dose 2.5 µM): 0.5863 |
| CCCCc1ccc(NS(=O)(=O)c2ccc(C)c(C(=O)N3CCN(c4ccccc4OCCF)CC3)c2)cc1 [TOS-2, N-(4-butylphenyl)-3-{4-[2-(2-fluoroethoxy)phenyl]piperazine-1-carbonyl}-4-methylbenzene-1-sulfonamide] | 401 nM | 59.2 ± 8.12% | > 10 µM | 26.1 ± 6.61% | 0% | 522 nM | 50.9 ± 1.87% | 9.66 ± 3.59% | 19.6 ± 2.78% | 0% | 13.8 ± 4.23% | 5 µM | 0% | 24.4 ± 0.82 µM | 28.9 ± 1.07 µM | 17.3 ± 2.23 µM | 15.6 ± 1.35 µM | 18.9 ± 0.42 µM | > 30 µM | 48% | Fa (fraction affected), combination with axitinib (ABL1 enzyme; TOS-2 0.0625 µM + axitinib 0.0625 µM): 0.354; Fa (fraction affected), combination with axitinib (ABL1 enzyme; TOS-2 0.125 µM + axitinib 0.125 µM): 0.4632; Fa (fraction affected), combination with axitinib (ABL1 enzyme; TOS-2 0.25 µM + axitinib 0.25 µM): 0.6215; Fa (fraction affected), combination with axitinib (ABL1 enzyme; TOS-2 0.5 µM + axitinib 0.5 µM): 0.6852; Fa (fraction affected), combination with axitinib (ABL1 enzyme; TOS-2 1 µM + axitinib 1 µM): 0.8101; Combination index [CI] (ABL1 enzyme): 0.75; Fa (fraction affected), single agent (ABL1 enzyme; dose 0.0625 µM): 0.07245; Fa (fraction affected), single agent (ABL1 enzyme; dose 0.125 µM): 0.2475; Fa (fraction affected), single agent (ABL1 enzyme; dose 0.25 µM): 0.3737; Fa (fraction affected), single agent (ABL1 enzyme; dose 0.5 µM): 0.518; Fa (fraction affected), single agent (ABL1 enzyme; dose 1 µM): 0.638 |
| NC(=O)c1cccc(-c2cc(Nc3ccc(OC(F)(F)F)cc3)ncn2)c1 [GNF-2] | – | – | – | – | – | – | – | – | – | – | – | – | – | – | – | – | – | – | – | – | level of activity towards recombinant ABL1 protein (ABL1 recombinant protein): ~ 1 μM |
| N#Cc1ccnc(N2C(=O)CC[C@H]2C(=O)N(c2cncc(F)c2)[C@H](C(=O)NC2CC(F)(F)C2)c2ccccc2Cl)c1 [ivosidenib] | – | – | – | – | – | – | – | – | – | – | – | – | – | – | – | – | – | – | – | – | IC50 (wild-type IDH1): 24 nM; IC50 (IDH1 R132H; read-out: IC50 IDH1 mutant): 12 nM |
| C[C@H](O)c1cccc(NC(=O)c2nn(Cc3ccc(F)cc3)c3c2CN(C(=O)c2ccc[nH]2)C[C@H]3C)c1 [GSK-321] | – | – | – | – | – | – | – | – | – | – | – | – | – | – | – | – | – | – | – | – | inhibitory activity against IDH1 R132H in biochemical tests (IDH1 R132H): 4.6 nM |
